Where two headings read alike, the source gives them in different places.
Test system: subjects with MDD at imminent risk for suicide
Settings: 84 mg
[1] = TEAE leading to study discontinuation, double-blind phase, N = 35
[2] = TEAE, double-blind phase, N = 35

CN[C@]1(c2ccccc2Cl)CCCCC1=O [esketamine, (S)-2-(2-chlorophenyl)-2-(methylamino)cyclohexanone]
(25.7%): Ear and labyrinth disorders: % of subjects [2] | Respiratory, thoracic and mediastinal disorders: % of subjects [2]
Four: subjects with a serious treatment-emergent adverse event (double-blind phase)
(11.4%): Euphoric mood: % of subjects [2] | Somnolence: % of subjects [2] | Vertigo: % of subjects [2]
34.3%: TEAE incidence: dizziness (double-blind phase)
5: Withdrawn from double-blind phase: Adverse event, number of subjects (all randomized analysis set, N = 36) | Total no. subjects with TEAE leading to study discontinuation: no. of subjects [1] | Investigations: no. of subjects [2] | Skin and subcutaneous tissue disorders: no. of subjects [2]
3: Agitation: no. of subjects [2] | Diarrhea: no. of subjects [2] | Dry mouth: no. of subjects [2] | Feeling abnormal: no. of subjects [2] | Hypoesthesia: no. of subjects [2] | Insomnia: no. of subjects [2] | Nasal discomfort: no. of subjects [2] | Throat irritation: no. of subjects [2]
(8.6%): Agitation: % of subjects [2] | Diarrhea: % of subjects [2] | Dry mouth: % of subjects [2] | Feeling abnormal: % of subjects [2] | Hypoesthesia: % of subjects [2] | Insomnia: % of subjects [2] | Nasal discomfort: % of subjects [2] | Throat irritation: % of subjects [2]
(17.1%): Anxiety: % of subjects [2] | Paresthesia: % of subjects [2] | Sedation: % of subjects [2]
5 subjects: subjects who discontinued the double-blind phase due to adverse events
20: Psychiatric disorders: no. of subjects [2]
2.9%: Aggression: % of subjects [1] | Agitation: % of subjects [1] | Cardiac disorders: % of subjects [1] | Dizziness: % of subjects [1] | Dysgeusia: % of subjects [1] | Dyspnea: % of subjects [1] | Gastrointestinal disorders: % of subjects [1] | Nausea: % of subjects [1] | Respiratory, thoracic and mediastinal disorders: % of subjects [1] | Ventricular extrasystoles: % of subjects [1]
37.1%: TEAE incidence: nausea (double-blind phase)
20.0%: TEAE incidence: vomiting (double-blind phase)
1: Aggression: no. of subjects [1] | Agitation: no. of subjects [1] | Cardiac disorders: no. of subjects [1] | Dizziness: no. of subjects [1] | Dysgeusia: no. of subjects [1] | Dyspnea: no. of subjects [1] | Gastrointestinal disorders: no. of subjects [1] | Nausea: no. of subjects [1] | Respiratory, thoracic and mediastinal disorders: no. of subjects [1] | Ventricular extrasystoles: no. of subjects [1] | Flatulence: no. of subjects [2] | Infections and infestations: no. of subjects [2] | Nasal congestion: no. of subjects [2] | Rash: no. of subjects [2] | Renal and urinary disorders: no. of subjects [2]
5.7%: Nervous system disorders: % of subjects [1] | Psychiatric disorders: % of subjects [1]
(37.1%): Nausea: % of subjects [2]
(14.3%): Investigations: % of subjects [2] | Skin and subcutaneous tissue disorders: % of subjects [2]
4: Euphoric mood: no. of subjects [2] | Somnolence: no. of subjects [2]
(2.9%): Flatulence: % of subjects [2] | Infections and infestations: % of subjects [2] | Nasal congestion: % of subjects [2] | Rash: % of subjects [2] | Renal and urinary disorders: % of subjects [2]
6: Anxiety: no. of subjects [2] | Paresthesia: no. of subjects [2] | Sedation: no. of subjects [2]
19: Gastrointestinal disorders: no. of subjects [2]
(5.7%): Acne: % of subjects [2] | Blood pressure increased: % of subjects [2] | Diplopia: % of subjects [2] | Dizziness postural: % of subjects [2] | Fatigue: % of subjects [2] | Feeling cold: % of subjects [2] | Hyperacusis: % of subjects [2] | Hyperhidrosis: % of subjects [2] | Hypoesthesia oral: % of subjects [2] | Oropharyngeal pain: % of subjects [2] | Paresthesia oral: % of subjects [2] | Pharyngeal hypoesthesia: % of subjects [2] | Suicidal ideation: % of subjects [2] | Tinnitus: % of subjects [2]
(13.9%): Withdrawn from double-blind phase: Adverse event, percent of subjects (all randomized analysis set)
1 subjects: subjects with a serious adverse event (follow up phase)
94.3%: subjects with at least one TEAE (double-blind phase)
13: Nausea: no. of subjects [2]
11: Dissociation: no. of subjects [2] | Dysgeusia: no. of subjects [2] | Headache: no. of subjects [2]
(71.4%): Nervous system disorders: % of subjects [2]
(20.0%): Eye disorders: % of subjects [2]
0: Dissociative disorder: no. of subjects [1] | Panic attack: no. of subjects [1] | Abdominal pain: no. of subjects [2] | Blepharospasm: no. of subjects [2] | Constipation: no. of subjects [2] | Epistaxis: no. of subjects [2] | Intranasal paranesthesia: no. of subjects [2] | Panic attack: no. of subjects [2] | Pollakiuria: no. of subjects [2] | Rhinalgia: no. of subjects [2] | Rhinorrhoea: no. of subjects [2] | Toothache: no. of subjects [2] | Upper respiratory tract infection: no. of subjects [2]
25: Nervous system disorders: no. of subjects [2]
(57.1%): Psychiatric disorders: % of subjects [2]
(54.3%): Gastrointestinal disorders: % of subjects [2]
10: General disorders and administration site conditions: no. of subjects [2]
31.4%: TEAE incidence: dissociation (double-blind phase) | TEAE incidence: dysgeusia (double-blind phase) | TEAE incidence: headache (double-blind phase)
(31.4%): Dissociation: % of subjects [2] | Dysgeusia: % of subjects [2] | Headache: % of subjects [2]
(28.6%): General disorders and administration site conditions: % of subjects [2]
14.3%: Total no. subjects with TEAE leading to study discontinuation: % of subjects [1]
2: Nervous system disorders: no. of subjects [1] | Psychiatric disorders: no. of subjects [1] | Acne: no. of subjects [2] | Blood pressure increased: no. of subjects [2] | Diplopia: no. of subjects [2] | Dizziness postural: no. of subjects [2] | Fatigue: no. of subjects [2] | Feeling cold: no. of subjects [2] | Hyperacusis: no. of subjects [2] | Hyperhidrosis: no. of subjects [2] | Hypoesthesia oral: no. of subjects [2] | Oropharyngeal pain: no. of subjects [2] | Paresthesia oral: no. of subjects [2] | Pharyngeal hypoesthesia: no. of subjects [2] | Suicidal ideation: no. of subjects [2] | Tinnitus: no. of subjects [2]
33: Total no. subjects with TEAE: no. of subjects [2]
(94.3%): Total no. subjects with TEAE: % of subjects [2]
48.1%: subjects with at least one adverse event (follow up phase)
(34.3%): Dizziness: % of subjects [2]
7: Eye disorders: no. of subjects [2]
9: Ear and labyrinth disorders: no. of subjects [2] | Respiratory, thoracic and mediastinal disorders: no. of subjects [2]
12: Dizziness: no. of subjects [2]

From US11883526B2 (priority 2019, dated 2024)
